The test system of data set [1] is Echinochloa crus-galli. Description: Ratio of Contanil IC50 to compound IC50 for root elongation in Echinochloa crus-galli (barnyard grass). In kind it is functional.
Data set [2] can be described thus: Selectivity idex, ratio of IC50 for root elongation in Oryza sativa to IC50 for root elongation in Echinochloa crus-galli.
For data set [3], the system named is Oryza sativa. Description: Phytotoxicity against Oryza sativa (rice) assessed as inhibition of root elongation after 7 days relative to control. The note with it: 168 h. In kind it is organism-based.
The test system of data set [4] is Triticum aestivum. Description: Phytotoxicity against Triticum aestivum (wheat) assessed as inhibition of seed germination at 10 uM to 1 mM after 5 days relative to control. The data set is classed as organism-based. The note with it: in vivo, 120 h.
Data set [5] deals with Avena fatua. In words: Herbicidal activity against Avena fatua assessed as inhibition of root elongation at 6 uM after 5 days relative to control. The data set is classed as functional. The following applies: 120 h.
Data set [6] deals with Echinochloa crus-galli. In words: Herbicidal activity against Echinochloa crus-galli (barnyard grass) assessed as inhibition of root length after 5 days relative to control. In kind it is functional, organism-based. The note with it: 120 h.
Data set [7] concerns Oryza sativa. Description: Phytotoxicity against Oryza sativa (rice) assessed as inhibition of seed germination at 10 uM to 1 mM after 7 days relative to control. The note with it: in vivo, 168 h. In kind it is organism-based.
For data set [8], the system named is Avena fatua. Description: Herbicidal activity against Avena fatua assessed as inhibition of seed germination at 0.05 uM to 1 mM after 5 days relative to control. The data set is classed as functional, organism-based.
The test system of data set [9] is Avena fatua. In words: Herbicidal activity against Avena fatua assessed as inhibition of root length after 5 days relative to control. The data set is classed as functional, organism-based. The note with it: 120 h.
Data set [10] has as its system Echinochloa crus-galli. Description: Herbicidal activity against Echinochloa crus-galli (barnyard grass) assessed as inhibition of seed germination at 0.05 uM to 1 mM after 5 days relative to control. The data set is classed as functional, organism-based.
Data set [11] relates to Avena fatua. In words: Herbicidal activity against Avena fatua assessed as inhibition of shoot length at 0.05 uM to 1 mM after 5 days relative to control. The data set is classed as functional, organism-based.
Data set [12] deals with Triticum aestivum. In words: Phytotoxicity against Triticum aestivum (wheat) assessed as inhibition of root elongation after 5 days relative to control. The following applies: 120 h. In kind it is organism-based.
The test system of data set [13] is Echinochloa crus-galli. In words: Herbicidal activity against Echinochloa crus-galli (barnyard grass) assessed as inhibition of shoot length at 0.05 uM to 1 mM after 5 days relative to control. The data set is classed as functional, organism-based.
Data set [14] in a line: Phytotoxicity against Triticum aestivum (wheat) assessed as inhibition of root elongation at 6 uM after 5 days relative to control. In kind it is organism-based. The note with it: in vivo.
A short description of data set [15]: Selectivity idex, ratio of IC50 for root elongation in Triticum aestivum to IC50 for root elongation in Avena fatua.

The source made the active and inactive calls. No cut-off for these calls is given here.

On to `CCC(=O)ON1C(=O)COc2ccc(F)cc21` [6F-4Pr-D-DIBOA], for which the results for the “Ratio IC50” value (in the data set on Echinochloa crus-galli [1]; in data set [2]; in data set [15]) were 12, 0.36 and 13.2, respectively. Besides, the IC50 – broadly, the midpoint of a concentration-inhibition curve – in the data set on Oryza sativa [3] stood at 3000 nM; in the data set with Echinochloa crus-galli [6], 9 µM; with Avena fatua [9], 6.22 µM; in the data set on Triticum aestivum [12], 81.9 µM. Moreover, the Activity result in the data set with Triticum aestivum [4] and in the data set on Oryza sativa [7] was “Non-toxic” throughout. In the data set on Avena fatua [5], the inhibition – broadly, the share of the control response that was lost under treatment – at 6 µM was found to be 70%. Also, the inhibition entry with Avena fatua [8], in the data set on Echinochloa crus-galli [10], with Avena fatua [11] and with Echinochloa crus-galli [13] was “Active” in each case. Also, in data set [14], the inhibition at 120 h, 6 µM was determined as 25%.

(Values after ChEMBL document CHEMBL3046390, “Multifunctionalised benzoxazinones in the systems Oryza sativa-Echinochloa crus-galli and Triticum aestivum-Avena fatua as natural-product-based herbicide leads” (Pest Manag Sci, 2010).)
